Experimental data from patent US8183395B2, “Compositions and methods for treating cancer” (Rutgers, The State University of New Jersey, priority 2007, dated 2012).

What was measured:
Format in all cases: cell-based
[1] = test system: W2 (apoptosis competent) cells; test: Apoptosis induction screen, MTT cell viability, W2 cells
Excerpt: (§1) Pro-apoptotic Bax and Bak are the essential and redundant regulators of apoptosis required for suppressing tumor growth and chemotherapeutic response. Because D3 cells are genetically deleted for Bax and Bak, there is no means to restore apoptosis in these cells, yet all apoptosis regulatory mechanisms upstream (Bcl-2, Bcl-xL, Bim, Nbk/Bik, Puma, Noxa, caspase-3, caspase-7) remain intact. […] This feature permits the use of W2 and D3 cell lines in biological screening for compounds that promote apoptosis by the criteria of killing W2 and not D3 cells. Compounds that indiscriminately kill both apoptosis-competent W2 and apoptosis-defective D3 cells are eliminated as non-specifically toxic.
(§2) W2 and D3 cells were plated in 96 and 24-well plates and incubated for 24 hours after which they were evenly spread at about 50% confluency. At this time, compounds dissolved in DMSO and diluted in growth medium (DMEM) were added to the cells at various concentrations. […] Cell viability was determined using a modification of the MTT assay, where the reduction of yellow tertazolium salt (MTT-3-(4,5-Dimethylthiazol-2-yl)-2,5) to purple formazan indicates mitochondrial activity, and thus cell viability. […] After 30 minutes incubation at 37° C., with shaking, absorbance was read at 570 nm on a Spectra MAX 250 (Molecular Devices) plate reader. Differential growth from time 0 to 48 hours was calculated. […]

[2] = test system: apoptosis resistant D3 cells; test: Time-lapse microscopy of cell division and viability, D3 cells; parameters: dose or concentration left out as unconfirmed
Protocol: (§3) In order to determine the differential impact of apoptosis induction on cell growth and viability of W2 and D3 cells, cell division and viability was monitored via time-lapse microscopy. Cells were cultured in a time-lapse chamber equipped with controlled environmental conditions. The time-lapse microscopy system consisted of an Olympus IX71 inverted microscope fitted with temperature, humidity and CO2 controlled environmental chamber (Solent Scientific, UK) and a Coolsnap ES cooled
(§4) CCD camera. Image capturing and analysis were performed using Image-Pro Plus software (Media Cybernetics, USA). Phase contrast images (100×) at multiple fields were obtained for the indicated time period. Time-lapse images were converted to movies using Image-Pro Plus software with custom modifications and a graphic data processing workstation (Dell Precision 670).
(§5) W2 and D3 cells were incubated for 48 hours in the presence of Compound I […] (FIG. 3b).

[3] = test system: apoptosis competent W2 cells; test: Time-lapse microscopy of cell division and viability, W2 cells; parameters: sensitivity of W2 cells to apoptosis: dose or concentration left out as unconfirmed
Protocol: as §3, §4, §5

[4] = test system: D3 (apoptosis defective) cells; test: Apoptosis induction screen, MTT cell viability, D3 cells; conditions: MTT assay, time 0 to 48 hours, Compound I 12 μM (FIG. 3a)
Excerpt: as §1, §2

Compound | death of W2 ([1]; MTT assay, time 0 to 48 hours, Compound I 12 μM (FIG. 3a)) [%] | growth arrest in treated D3 cells [2] | survival of the D3 cells [2] | viability of D3 cells ([2]; at 48 hours, persisted following 72 hours) | sensitivity of W2 cells to apoptosis ([3]; 48 hours) | time to induction of cell death of W2 cells (rounded and detached) ([3]; DMEM with 10% FBS, 5% CO2 at 37° C.) [h] | growth of D3 [4] [%] | apoptosis induction (positive control) ([1]; W2 and D3 cells, 0.1 μM staurosporine)
C=C1CC/C=C(\C)CC[C@@H]2C(C(CC3OC3(C)C)OC(C)=O)=CO[C@H](OC(C)=O)[C@@H]12 (some centres unmarked) [Compound I, 9-deacetoxyxeniculin] | 50 | clear indication of growth arrest | at least 72 hours | retained their viability | highly sensitive to apoptosis | 18 to 24 | 61 | 
CN[C@@H]1C[C@H]2O[C@@](C)([C@@H]1OC)n1c3ccccc3c3c4c(c5c6ccccc6n2c5c31)C(=O)NC4 [staurosporine, reference compound] |  |  |  |  |  |  |  | induced apoptosis at comparable levels to Compound I
